In ChEMBL document CHEMBL1201862, “PubChem BioAssay data set” (2004):
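Growth conditions: 96-well plates. Treatment: test compound, 48 hours, 5 concentrations. Analysis: linear interpolation between bracketing concentrations; unreached endpoints set to highest concentration. Abbreviation: GI50, concentration required for 50% inhibition of growth.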 Calls of active or inactive are those of the source. Rule as the data show it: active = GI50 up to about 1.1 µM and inactive = higher.

How the values were obtained:
Test in all cases: NCI anticancer screen, dose series, 48 h
786-0 = system: 786-0
A498 = system: A498
BT-549 = system: BT-549
COLO 205 = system: COLO 205
DU-145 = system: DU-145
HOP-62 = system: HOP-62
HOP-92 = system: HOP-92
IGROV-1 = system: IGROV-1
M14 = system: M14
MDA-MB-231 = system: MDA-MB-231
NCI-H23 = system: NCI-H23
NCI-H460 = system: NCI-H460
OVCAR-5 = system: OVCAR-5
OVCAR-8 = system: OVCAR-8
SN12C = system: SN12C
SW-620 = system: SW-620
T47D = system: T47D
U-251 = system: U-251
NCI/ADR-RES = system: NCI/ADR-RES
SK-MEL-2 = system: SK-MEL-2

Structure (SMILES)	GI50 (786-0)	GI50 (A498)	GI50 (BT-549)	GI50 (COLO 205)	GI50 (DU-145)	GI50 (HOP-62)	GI50 (HOP-92)	GI50 (IGROV-1)	GI50 (M14)	GI50 (MDA-MB-231)	GI50 (NCI-H23)	GI50 (NCI-H460)	GI50 (OVCAR-5)	GI50 (OVCAR-8)	GI50 (SN12C)	GI50 (SW-620)	GI50 (T47D)	GI50 (U-251)	GI50 (NCI/ADR-RES)	GI50 (SK-MEL-2)
CC(=O)Oc1ccc2c(c1)CC[C@@H]1C2CC[C@]2(C)C(=O)NC(=O)CC12 (stereo partly drawn)	> 100 µM (inactive)	> 100 µM (inactive)	> 100 µM (inactive)	> 100 µM (inactive)	> 100 µM (inactive)	> 100 µM (inactive)	> 100 µM (inactive)	> 100 µM (inactive)	> 100 µM (inactive)	> 100 µM (inactive)	> 100 µM (inactive)	> 100 µM (inactive)	> 100 µM (inactive)	> 100 µM (inactive)	> 100 µM (inactive)	> 100 µM (inactive)	> 100 µM (inactive)	> 100 µM (inactive)		
CCC(=O)Nc1ccc(N2C(=O)C(Cl)C2c2ccc(SC)cc2)cc1 (stereo not drawn)	57.3 µM (inactive)	> 100 µM (inactive)	> 100 µM (inactive)	40.4 µM (inactive)	> 100 µM (inactive)	61.7 µM (inactive)	> 100 µM (inactive)	94.2 µM (inactive)	> 100 µM (inactive)		> 100 µM (inactive)	32.8 µM (inactive)	97.5 µM (inactive)	> 100 µM (inactive)	50.2 µM (inactive)	> 100 µM (inactive)	73.6 µM (inactive)		> 100 µM (inactive)	65 µM (inactive)
O=C(/C=C/c1ccsc1)c1ccc(Cl)s1	> 10 µM (inactive)	34.5 µM (inactive)		> 100 µM (inactive)	> 100 µM (inactive)	> 100 µM (inactive)		> 100 µM (inactive)	> 100 µM (inactive)	> 100 µM (inactive)	82.8 µM (inactive)	> 100 µM (inactive)		> 100 µM (inactive)	75.3 µM (inactive)	24.7 µM (inactive)	> 100 µM (inactive)	> 100 µM (inactive)	> 100 µM (inactive)	> 100 µM (inactive)
CC(C)(NO)/C(=N\O)c1ccccc1	> 10 µM (inactive)		> 10 µM (inactive)	> 10 µM (inactive)	> 10 µM (inactive)	> 10 µM (inactive)	> 10 µM (inactive)		> 10 µM (inactive)	> 10 µM (inactive)	> 10 µM (inactive)	> 10 µM (inactive)	> 10 µM (inactive)	> 10 µM (inactive)	> 10 µM (inactive)	> 10 µM (inactive)	> 10 µM (inactive)	> 10 µM (inactive)	> 10 µM (inactive)	> 10 µM (inactive)
CN1N=C(c2ccncc2)OC1c1cccc(C(F)(F)F)c1 (stereo not drawn)	> 100 µM (inactive)	> 100 µM (inactive)		> 100 µM (inactive)	> 100 µM (inactive)	> 100 µM (inactive)		> 100 µM (inactive)	> 100 µM (inactive)	41.2 µM (inactive)	> 100 µM (inactive)	> 100 µM (inactive)	> 100 µM (inactive)	> 100 µM (inactive)	> 100 µM (inactive)	> 100 µM (inactive)	96.6 µM (inactive)	> 100 µM (inactive)	> 100 µM (inactive)	> 100 µM (inactive)
COc1cc(C)c(/C=C/C(=O)N2C(=O)OC[C@@H]2c2ccccc2)c(C)c1	> 100 µM (inactive)	52.5 µM (inactive)		> 100 µM (inactive)	37.6 µM (inactive)	> 100 µM (inactive)	> 100 µM (inactive)	> 100 µM (inactive)	> 100 µM (inactive)	> 100 µM (inactive)	> 100 µM (inactive)		> 100 µM (inactive)	40.2 µM (inactive)	> 100 µM (inactive)	> 100 µM (inactive)	23.2 µM (inactive)	> 100 µM (inactive)	28.6 µM (inactive)	> 100 µM (inactive)
COc1ccccc1/C=C1\Sc2scc(-c3ccc(O)c(O)c3)[n+]2C1=O	15.2 µM (inactive)		17.8 µM (inactive)	19.6 µM (inactive)	21.4 µM (inactive)	29.7 µM (inactive)	19.7 µM (inactive)	15.9 µM (inactive)	15.1 µM (inactive)	20 µM (inactive)	26.6 µM (inactive)	18.8 µM (inactive)	26.5 µM (inactive)	39.9 µM (inactive)	22.5 µM (inactive)	15.9 µM (inactive)	16.3 µM (inactive)	27.8 µM (inactive)	27.3 µM (inactive)	17.2 µM (inactive)
Cc1ccc(-c2n[nH]c(=O)n2NC(=O)c2ccccc2C(=O)O)cc1	> 100 µM (inactive)		> 100 µM (inactive)		> 100 µM (inactive)	> 100 µM (inactive)	> 100 µM (inactive)	> 100 µM (inactive)	> 100 µM (inactive)	> 100 µM (inactive)	> 100 µM (inactive)	> 100 µM (inactive)		> 100 µM (inactive)	> 100 µM (inactive)	> 100 µM (inactive)	72.8 µM (inactive)	> 100 µM (inactive)	> 100 µM (inactive)	> 100 µM (inactive)
CCSc1c(C)c2c(n(Cc3ccc(OC)cc3)c1=O)Cc1ccccc1C2	11 µM (inactive)		22.9 µM (inactive)	35.6 µM (inactive)	24.7 µM (inactive)	23.1 µM (inactive)		19 µM (inactive)	10.9 µM (inactive)	20.7 µM (inactive)	20 µM (inactive)	6.11 µM (inactive)	46.9 µM (inactive)	14.9 µM (inactive)	12.8 µM (inactive)	15.5 µM (inactive)	30.5 µM (inactive)	15 µM (inactive)	5.08 µM (inactive)	8.3 µM (inactive)
CS(=O)(=O)OCCN1CCC2(CC1)SSC1(CCN(CCOS(C)(=O)=O)CC1)S2	56.9 µM (inactive)	0.352 µM (active)	45.5 µM (inactive)	28.7 µM (inactive)		> 100 µM (inactive)		50.8 µM (inactive)	> 100 µM (inactive)	> 100 µM (inactive)	60 µM (inactive)	34.8 µM (inactive)	24 µM (inactive)	> 100 µM (inactive)	43 µM (inactive)	42.3 µM (inactive)		72.6 µM (inactive)	> 100 µM (inactive)	> 100 µM (inactive)
Cc1ccc(S(=O)(=O)N2c3ccccc3[C@H]3CCC=C[C@H]32)cc1	13.2 µM (inactive)	6.4 µM (inactive)	8.91 µM (inactive)	3.94 µM (inactive)	20.3 µM (inactive)	7.46 µM (inactive)	3.16 µM (inactive)	10.6 µM (inactive)	5.5 µM (inactive)	49.2 µM (inactive)	8.28 µM (inactive)	6.56 µM (inactive)	41.3 µM (inactive)	20.5 µM (inactive)	14.5 µM (inactive)	4.51 µM (inactive)	4.97 µM (inactive)	4.78 µM (inactive)		4.58 µM (inactive)
C#CCNC(=O)NC(CCCCNC(=O)OCc1ccccc1)C(=O)OCc1ccccc1 (stereo not drawn)	> 95.7 µM (inactive)	21.9 µM (inactive)	> 100 µM (inactive)	21.7 µM (inactive)	> 100 µM (inactive)	> 100 µM (inactive)	18.7 µM (inactive)	> 100 µM (inactive)	22.7 µM (inactive)	> 39.2 µM (inactive)	76.2 µM (inactive)	93.5 µM (inactive)	> 100 µM (inactive)	95.1 µM (inactive)	37.4 µM (inactive)	> 100 µM (inactive)		> 72.1 µM (inactive)	> 100 µM (inactive)	16.6 µM (inactive)
c1ccc(Cn2c(-c3ccc(-c4ccccc4)cc3)cc3ccccc32)cc1	> 100 µM (inactive)		> 100 µM (inactive)	> 100 µM (inactive)	> 100 µM (inactive)	> 100 µM (inactive)	> 100 µM (inactive)	67.5 µM (inactive)	> 100 µM (inactive)	> 100 µM (inactive)	> 100 µM (inactive)	> 100 µM (inactive)	> 100 µM (inactive)	> 100 µM (inactive)	> 100 µM (inactive)	> 100 µM (inactive)	> 100 µM (inactive)	> 100 µM (inactive)	> 100 µM (inactive)	94.6 µM (inactive)
C[C@H]1O[C@@H](c2c(O)ccc3ccccc23)C[C@@H](N(C)C)C1O (stereo partly drawn)	91.6 µM (inactive)	51.9 µM (inactive)	> 100 µM (inactive)	65.3 µM (inactive)	> 100 µM (inactive)	> 100 µM (inactive)	24.2 µM (inactive)	73.6 µM (inactive)	78.5 µM (inactive)	> 100 µM (inactive)	> 100 µM (inactive)	52.7 µM (inactive)	> 100 µM (inactive)	> 100 µM (inactive)	> 100 µM (inactive)	> 100 µM (inactive)		> 100 µM (inactive)	> 100 µM (inactive)	> 100 µM (inactive)
Clc1ccc(C(c2ccc(Cl)cc2)c2cncnc2)cc1	17.3 µM (inactive)		13.9 µM (inactive)	17.1 µM (inactive)	17.5 µM (inactive)	17.2 µM (inactive)		16 µM (inactive)	16.4 µM (inactive)	17.7 µM (inactive)	15.9 µM (inactive)	17.6 µM (inactive)	15.6 µM (inactive)	20.3 µM (inactive)	18.4 µM (inactive)		16.6 µM (inactive)	17.3 µM (inactive)	18.7 µM (inactive)	
Oc1ccc(/C=N/c2nccs2)c(O)c1	> 100 µM (inactive)		> 100 µM (inactive)	33.3 µM (inactive)	> 100 µM (inactive)	> 100 µM (inactive)		> 100 µM (inactive)	> 100 µM (inactive)	> 100 µM (inactive)	> 100 µM (inactive)	> 100 µM (inactive)	> 100 µM (inactive)	> 100 µM (inactive)					> 100 µM (inactive)	
